Laboratory results: US12240854B2, “TRAF 6 inhibitors” (Helmholtz Zentrum München - Deutsches Forschungszentrum für …, priority 2018, dated 2025)

The molecules below were run against T1, TRAF6WTStrepII-Ubc13FH interaction (Homo sapiens, UniProt Q9Y4K3) (assay: ALPHAScreen TRAF6-Ubc13 interaction assay). Conditions: TRAF6 100 nM, Ubc13FH 75 nM; class symbols; read-out: IC50 Alphascreen (inhibition of TRAF6-UBC13 interaction).
T1 construct: RING-Zincfinger1 (RZ1) domain (residues 50-159) of human TRAF6 wildtype; made in house; host or cells: E. coli BL21 codon plus RIPL
T1 sequence (Q9Y4K3 with tags, fused parts or gaps): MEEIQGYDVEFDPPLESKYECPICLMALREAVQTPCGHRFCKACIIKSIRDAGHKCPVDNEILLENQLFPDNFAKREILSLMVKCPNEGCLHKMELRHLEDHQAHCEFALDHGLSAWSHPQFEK
Type: binding
From the text: In order to identify small molecules that specifically target the RZ1 domain of TRAF6 and thereby prevent its binding to Ubc13, the ALPHAScreen technology (PerkinElmer) was chosen to detect TRAF6WTStrepII-Ubc13FH interaction in High-Throughput-Screenings as well as Structure Activity Relationship (SAR) analysis.
For performance of an automated ALPHAScreen assay, all following components were pre-diluted in ALPHAScreen buffer (1×PBS, 0.5% BSA, 0.01% Tween-20). First, the TRAF6 protein (end concentration 100 nM, 30 μL volume) was added to 384-well-opti-plates involving the MultiFlo dispensing system (BioTek) followed by transfer of the compounds via the Sciclone G3 transfer station (PerkinElmer). After addition of Ubc13FH (end concentration 75 nM, 10 μL volume) with the MultiFlo system and incubation for one hour at room temperature, both beads (Strep-Tactin Alpha Donor beads and Nickel-Chelate acceptor beads; end concentrations 4 μg each, 10 μL volume each) were mixed and added using the MultiFlo system in subdued light. Read-out of the plates occurred after another hour of incubation at room temperature. Statistical parameters including the coefficient of variation, Z′ factor and signal window were calculated to determine the quality of the HTS campaign. To evaluate the efficacy of the compounds, ALPHAScreen units of compound-treated samples were referred to DMSO control treated samples. Thereby, the TRAF6D57K mutant served as the control for minimum signal and was included on every plate of the screening. Compounds that inhibited TRAF6WTStrepII-Ubc13FH by more than 25% were considered as actives. After elimination of ALPHAScreen frequent hitter compounds and His-tag frequent hitters (Schorpp, K., I. Rothenaigner, E. Salmina, et al., Identification of Small-Molecule Frequent Hitters from AlphaScreen High-Throughput Screens. J Biomol Screen, 2014. 19(5): p. 715-26), 178 compounds were defined as primary hits and were subsequently tested in five-point serial dilution assays (2.5-40 μM) in TRAF6WTStrepII-Ubc13FH ALPHAScreen experiments. Only compounds with dose-dependent effects on TRAF6WTStrepII-Ubc13FH (n=27) were taken for further research. For analog testing, all compounds were analyzed in ten-point titration (0.2-100 μM) in TRAF6WTStrepII-Ubc13FH ALPHAScreen experiments. In parallel, the compounds were tested in the ALPHAScreen TruHits Kit (PerkinElmer) to rule out unspecific interference with the ALPHAScreen technology.

| Compound | IC50 | inhibition at 100 µM |
| --- | --- | --- |
| Cc1nn(-c2ccc3nnc(C)n3c2)c(C)c1CCC(=O)N1CCN(Cc2ccccc2)CC1 [Example 105] | – | ≥ 30% |
| Cc1nn(-c2ccc3nnc(C)n3n2)c(C)c1CCC(=O)N1CCN(Cc2cccc(-c3nnn[nH]3)c2C)CC1 [Example 179] | ≤ 3 µM | – |
| Cc1nn(-c2ccc3nnc(C(F)(F)F)n3n2)c(C)c1CCC(=O)N1CCN(Cc2cc(F)cc(C#N)c2)CC1 [Example 181] | ≤ 30 µM | – |
| Cc1nn(-c2ccc3nnc(C)n3n2)c(C)c1CCC(=O)N1CCN(Cc2ccc(-c3ccccc3)cc2)CC1 [Example 113] | ≤ 10 µM | – |
| Cc1nn(-c2ccc3nnc(C)n3n2)c(C)c1CCC(=O)N1CCN(Cc2ccccc2C#N)CC1 [Example 127] | ≤ 10 µM | – |
| Cc1nn(-c2ccc3nnc(C)n3n2)c(C)c1CCC(=O)N1CCC(Oc2ccccc2)CC1 [Example 168] | ≤ 10 µM | – |
| Cc1nn(-c2ccc3nnc(C)n3n2)c(C)c1CCC(=O)N1CCN(Cc2cccc(C#N)c2C)CC1 [Example 185] | ≤ 3 µM | – |
| Cc1nn(-c2ccc3nnc(C)n3n2)c(C)c1CCC(=O)N1CCN(Cc2cccc(C#N)c2Cl)CC1 [Example 184] | ≤ 10 µM | – |
| Cc1nn(-c2ccc3nnc(C)n3n2)c(C)c1CCC(=O)N1CCN(Cc2ccc(C(F)(F)F)c(F)c2)CC1 [Example 136] | ≤ 10 µM | – |
| Cc1nn(-c2ccc3nnc(C)n3n2)c(C)c1CCC(=O)N1CCC(CCc2ccccc2)CC1 [Example 145] | ≤ 10 µM | – |
| Cc1nn(-c2ccc3nnc(C(F)(F)F)n3n2)c(C)c1CCC(=O)N1CCN(Cc2ccc(C#N)cc2Cl)CC1 [Example 189] | ≤ 30 µM | – |
| Cc1nn(-c2ccc3nnc(C)n3n2)c(C)c1CCC(=O)N1CCN(Cc2cc(-c3nnn[nH]3)ccc2Cl)CC1 [Example 171] | ≤ 3 µM | – |
| Cc1nn(-c2ccc3nnc(C)n3n2)c(C)c1CCC(=O)N1CCN(Cc2cccc3ccccc23)CC1 [Example 141] | ≤ 30 µM | – |
| Cc1nn(-c2ccc3nnc(C)n3n2)c(C)c1CCC(=O)N1CCN(Cc2cccc3cccnc23)CC1 [Example 153] | ≤ 3 µM | – |
| Cc1nn(-c2ccc3nnc(C)n3c2)c(C)c1CCC(=O)N1CCC(Cc2ccccc2)C1 (stereo not drawn) [Example 107] | – | ≥ 30% |
| Cc1ccccc1CN1CCN(C(=O)CCc2c(C)nn(-c3ccc4nnc(C)n4n3)c2C)CC1 [Example 160] | ≤ 3 µM | – |
| Cc1nn(-c2ccc3nnc(C)n3n2)c(C)c1CCC(=O)N1CCN(Cc2cccc3ncccc23)CC1 [Example 138] | ≤ 10 µM | – |

| Compound | IC50 | inhibition at 100 µM |
| --- | --- | --- |
| Cc1nn(-c2ccc3nnc(C)n3n2)c(C)c1CCC(=O)N1CCN(Cc2cccc(C#N)c2)CC1 [Example 126] | ≤ 3 µM | – |
| Cc1nn(-c2ccc3nnc(C)n3n2)c(C)c1CCC(=O)N1CCN(Cc2ccc(C#N)cc2Cl)CC1 [Example 188] | ≤ 30 µM | – |
| Cc1nn(-c2ccc3nnc(C(F)(F)F)n3n2)c(C)c1CCC(=O)N1CCN(Cc2cccc(-c3nnn[nH]3)c2Cl)CC1 [Example 176] | ≤ 3 µM | – |
| Cc1nn(-c2ccc3nnc(C)n3n2)c(C)c1CCC(=O)N1CCN(Cc2cccc(-c3nnn[nH]3)c2Cl)CC1 [Example 175] | ≤ 3 µM | – |
| Cc1nn(-c2ccc3nnc(C)n3n2)c(C)c1CCC(=O)N1CCN(Cc2cccc(NS(C)(=O)=O)c2)CC1 [Example 156] | ≤ 10 µM | – |
| Cc1nn(-c2ccc3nnc(C)n3n2)c(C)c1CCC(=O)N1CCN(Cc2cc(F)c(O)c(F)c2)CC1 [Example 146] | ≤ 3 µM | – |
| Cc1nn(-c2ccc3nnc(C(F)(F)F)n3n2)c(C)c1CCC(=O)N1CCN(Cc2cccc(C#N)c2C)CC1 [Example 186] | ≤ 10 µM | – |
| Cc1nn(-c2ccc3nnc(C)n3n2)c(C)c1CCC(=O)N1CCN(Cc2ccc(Cl)cc2Cl)CC1 [Example 132] | ≤ 10 µM | – |
| Cc1nn(-c2ccc3nnc(C)n3n2)c(C)c1CCC(=O)N1CCN(Cc2cc(F)cc(-c3nnn[nH]3)c2)CC1 [Example 177] | ≤ 3 µM | – |
| Cc1nn(-c2ccc3nnc(C)n3n2)c(C)c1CCC(=O)N1CCN(Cc2ccc3cn[nH]c3c2)CC1 [Example 137] | ≤ 10 µM | – |
| Cc1nn(-c2ccc3nnc(C(F)(F)F)n3n2)c(C)c1CCC(=O)N1CCN(Cc2cc(F)cc(-c3nnn[nH]3)c2)CC1 [Example 178] | ≤ 3 µM | – |
| Cc1nn(-c2ccc3nnc(C(F)(F)F)n3n2)c(C)c1CCC(=O)N1CCN(Cc2cccc(C#N)c2Cl)CC1 [Example 187] | ≤ 10 µM | – |
| Cc1nn(-c2ccc3nnc(C(F)(F)F)n3n2)c(C)c1CCC(=O)N1CCN(Cc2cc(-c3nnn[nH]3)ccc2Cl)CC1 [Example 172] | ≤ 3 µM | – |
| Cc1nn(-c2ccc3nnc(C)n3n2)c(C)c1CCC(=O)N1CCN(Cc2ccc(C#N)cc2F)CC1 [Example 182] | ≤ 10 µM | – |
| Cc1nn(-c2ccc3nnc(C)n3n2)c(C)c1CCC(=O)N1CCNC(Cc2ccccc2)C1 (stereo not drawn) [Example 102] | ≤ 30 µM | – |
| Cc1nn(-c2ccc3nnc(C)n3n2)c(C)c1CCC(=O)N1CCN(Cc2ccc(-c3nnn[nH]3)cc2Cl)CC1 [Example 173] | ≤ 3 µM | – |
| Cc1nn(-c2ccc3nnc(C)n3c2)c(C)c1CCC(=O)N1CCC(CCc2ccccc2)CC1 [Example 104] | – | ≥ 30% |

Results, then the molecule that gave them:

| IC50 | inhibition at 100 µM | Compound |
| --- | --- | --- |
| ≤ 30 µM | – | Cc1nn(-c2ccc3nnc(C)n3n2)c(C)c1CCC(=O)N1CCN(Cc2ccc(Cl)cc2)CC1 [Example 143] |
| ≤ 3 µM | – | Cc1nn(-c2ccc3nnc(C)n3n2)c(C)c1CCC(=O)N1CCN(Cc2cccc(C(=O)O)c2)CC1 [Example 99] |
| ≤ 3 µM | – | COC(=O)c1ccc(CN2CCN(C(=O)CCc3c(C)nn(-c4ccc5nnc(C)n5n4)c3C)CC2)cc1 [Example 96] |
| ≤ 3 µM | – | Cc1nn(-c2ccc3nnc(C)n3n2)c(C)c1CCC(=O)N1CCN(Cc2ccc(S(C)(=O)=O)cc2)CC1 [Example 116] |
| ≤ 30 µM | – | Cc1nn(-c2ccc3nnc(C)n3n2)c(C)c1CCC(=O)N1CCN(Cc2ccc(C(F)(F)F)cc2)CC1 [Example 110] |
| ≤ 10 µM | – | COC(=O)c1cccc(CN2CCN(C(=O)CCc3c(C)nn(-c4ccc5nnc(C)n5n4)c3C)CC2)c1 [Example 98] |
| ≤ 10 µM | – | Cc1nn(-c2ccc3nnc(C)n3n2)c(C)c1CCC(=O)N1CCN(Cc2cccc([N+](=O)[O-])c2)CC1 [Example 149] |
| ≤ 30 µM | – | Cc1nn(-c2ccc3nnc(C)n3n2)c(C)c1CCC(=O)N1CCN(Cc2ccc(F)c(F)c2)CC1 [Example 140] |
| ≤ 10 µM | – | CC(=O)Nc1ccc(CN2CCN(C(=O)CCc3c(C)nn(-c4ccc5nnc(C)n5n4)c3C)CC2)cc1 [Example 112] |
| ≤ 10 µM | – | COc1ccc(CN2CCN(C(=O)CCc3c(C)nn(-c4ccc5nnc(C)n5n4)c3C)CC2)cc1 [Example 157] |
| ≤ 3 µM | – | Cc1nn(-c2ccc3nnc(C)n3n2)c(C)c1CCC(=O)N1CCN(Cc2ccc([N+](=O)[O-])cc2)CC1 [Example 115] |
| ≤ 3 µM | – | CC(=O)c1cccc(CN2CCN(C(=O)CCc3c(C)nn(-c4ccc5nnc(C)n5n4)c3C)CC2)c1 [Example 125] |
| ≤ 10 µM | – | Cc1nn(-c2ccc3nnc(C)n3n2)c(C)c1CCC(=O)N1CCN(Cc2ccc(N(C)C)cc2)CC1 [Example 114] |
| ≤ 30 µM | – | Cc1nn(-c2ccc3nnc(C)n3n2)c(C)c1CCC(=O)N1CCN(Cc2ccc(C#N)cc2)CC1 [Example 109] |
| ≤ 10 µM | – | Cc1nn(-c2ccc3nnc(C)n3n2)c(C)c1CCC(=O)N1CCN(Cc2ccc(C(N)=O)cc2)CC1 [Example 118] |
| ≤ 3 µM | – | Cc1nn(-c2ccc3nnc(C)n3n2)c(C)c1CCC(=O)N1CCN(Cc2cccc(I)c2)CC1 [Example 134] |
| ≤ 3 µM | – | Cc1nn(-c2ccc3nnc(C)n3n2)c(C)c1CCC(=O)N1CCN(Cc2cccc(S(C)(=O)=O)c2)CC1 [Example 155] |
| ≤ 10 µM | – | CC(=O)c1ccc(CN2CCN(C(=O)CCc3c(C)nn(-c4ccc5nnc(C)n5n4)c3C)CC2)cc1 [Example 108] |
| ≤ 30 µM | – | CNC(=O)c1cccc(CN2CCN(C(=O)CCc3c(C)nn(-c4ccc5nnc(C)n5n4)c3C)CC2)c1 [Example 101] |
| ≤ 3 µM | – | Cc1nn(-c2ccc3nnc(C)n3n2)c(C)c1CCC(=O)N1CCN(Cc2cccc(Br)c2)CC1 [Example 163] |
| ≤ 10 µM | – | Cc1cccc(CN2CCN(C(=O)CCc3c(C)nn(-c4ccc5nnc(C)n5n4)c3C)CC2)c1 [Example 133] |
| ≤ 3 µM | – | Cc1nn(-c2ccc3nnc(C)n3n2)c(C)c1CCC(=O)N1CCN(Cc2ccc(Cl)c(Cl)c2)CC1 [Example 135] |
| ≤ 3 µM | – | Cc1nn(-c2ccc3nnc(C)n3n2)c(C)c1CCC(=O)N1CCN(Cc2ccc(O)c(Cl)c2)CC1 [Example 123] |
